The values that follow come from US12295973B2 (Fred Hutchinson Cancer Center, priority 2017, dated 2025).

Where a SMILES comes first, the peptide text is derived from it. [ ]: non-standard residue; d: D form. The star is where a group is joined. dPhe(4-NHCONH2) = NC(=O)Nc1ccc(C[C@@H](N)C(=O)O)cc1; Dihydroorotyl(S) = O=C1C[C@@H](C(=O)*)NC(=O)N1; dPhe(4-Cl) = N[C@H](Cc1ccc(Cl)cc1)C(=O)O; Phe(4-NH2) = Nc1ccc(C[C@H](N)C(=O)O)cc1; d2Nal = N[C@H](Cc1ccc2ccccc2c1)C(=O)O; Lys(iPr) = CC(C)NCCCC[C@H](N)C(=O)O; d3Pal = N[C@H](Cc1cccnc1)C(=O)O

Assay type in all cases: in vivo, mouse
The subject of assay [1] is hematopoietic stem and progenitor cell (HSPC) compartment. Put plainly: Bone marrow analysis of the HSPC compartment after L-TBI (cellularity, flow cytometry). As to the method: To investigate the specific regenerative effects mediated by LHRH-Ant treatment on the hematopoietic stem and progenitor cell (HSPC) compartment, BM were analyzed at several time points after L-TBI. […] To determine hematopoietic functional potential, colony-forming unit activity was next quantified to determine the effects of LHRH-Ant on the recovery of committed hematopoietic progenitor cells. […] Consistent with these functional findings, on day 14 after L-TBI, expansion of LSKs as well as their downstream progenitors in mice given LHRH-Ant were found (FIGS. 2F, 2G). […] However, given the changes in HSC phenotype after radiation, the standard competitive repopulation functional assay was adapted to evaluate the presence and relative quantity of functional HSCs after L-TBI. Specifically, all cells from the BM and spleen (to account for potential changes to circulating HSCs) were collected and transplanted from vehicle or LHRH-Ant treated mice at day 14 after L-TBI into irradiated hosts (along with a rescue dose of congenic WBM cells to ensure survival). This approach allowed detection of differences in the total number of residual HSCs which would be reflected by a functional difference in hematopoietic reconstitution.
Flow cytometry and cell cycle analysis: Monoclonal antibodies recognizing the following markers were used for flow cytometric analyses and cell sorting of murine cells (LSR II or FACSAria III, BD Biosciences): (from BD Pharmingen) c-kit (2B8), Sca-1 (D7), CD11b (M1/70), CD11c (HL3), CD19 (ID3), CD3ϵ (145-2C11), CD34 (RAM34), CD45 (30-F11), CD45.1 (A20), CD45.2 (104), CD48 (HM48-1), CD62L (MEL-14), CD135 (A2F10.1), Gr-1 (RB6-8C5), NK1.1 (PK136), TER-119 (TER-119); (from eBioscience) CD127 (A7R34), CD150 (mShad150); (from Invitrogen) B220 (RA3-6B2) and streptavidin (N/A). The mouse lineage antibody cocktail included anti-CD3, anti-CD4, anti-CD8α, anti-CD19, anti-CD11 b, anti-CD11c, anti-Gr-1, anti-NK1.1, and anti-TER119. The following antibodies were used for flow cytometry analyses of human samples, CD49f (eBioGoH3), CD45RA (L48), CD34 (581), CD38 (HIT2). CD90 (5E10), CD10 (H110a). The human lineage antibody cocktail included anti-CD3, anti-CD14, anti-CD16, anti-CD19, anti-CD20, anti-CD56. To detect human LHCGR a polyclonal anti-LHCGR (Alomone, cat #:ALR-010) was used. For intracellular Ki67/DAPI staining, BM cells were stained with surface markers, fixed, and permeabilized using the Fixation/Permeabilization kit (cat. 00552100 ebioscience) and permeabilization buffer (cat. 008333 ebioscience). Cells were then incubated with Ki67-Alexa 700 (B56) (from BD Biosciences) for 45 minutes at 4C. After centrifugation DAPI (5 μg/ml) was added to cells and allowed to incubate for at least 30 min at RT before analysis. […]

In assay [2] the test system is committed hematopoietic progenitor cells. Put plainly: Colony-forming unit activity of BM from L-TBI mice. Particulars: day 7 after L-TBI. As to the method: To investigate the specific regenerative effects mediated by LHRH-Ant treatment on the hematopoietic stem and progenitor cell (HSPC) compartment, BM were analyzed at several time points after L-TBI. […] To determine hematopoietic functional potential, colony-forming unit activity was next quantified to determine the effects of LHRH-Ant on the recovery of committed hematopoietic progenitor cells. […] Consistent with these functional findings, on day 14 after L-TBI, expansion of LSKs as well as their downstream progenitors in mice given LHRH-Ant were found (FIGS. 2F, 2G). […] However, given the changes in HSC phenotype after radiation, the standard competitive repopulation functional assay was adapted to evaluate the presence and relative quantity of functional HSCs after L-TBI. […]
Colony-Forming Cell (CFC) and Cobblestone Areas Forming Cell (CAFC): Assays were performed as previously described with a minor modifications^50. […] Colonies were scored after 10 days of incubation at 37° C. and 5% CO2. […] After 3 weeks of co-culture, CAFCs were scored as phase-dark hematopoietic clones of at least 5 cells beneath the stromal layer using an inverted microscope.

Assay [3] is described as follows: Hormone levels (testosterone, LH, FSH) after L-TBI.
A further assay deals with LT-HSCs. Put plainly: Cell cycle status of HSCs (Ki-67/DAPI) after L-TBI. Particulars: vs vehicle. An excerpt:
The control of HSC self-renewal, differentiation, and proliferation is a tightly regulated process crucial for maintaining the HSC pool^29-34. This is particularly relevant during hematopoietic injuries (such as high dose or repeated rounds of chemotherapy or irradiation) when dormant HSCs transiently start to proliferate to replenish blood cells as unbalanced HSC proliferation can lead to stem cell exhaustion and long-term myelosuppression^35-37. […] Although there is a clear need for HSC proliferation to ensure regenerative hematopoiesis, previous reports have also shown that induction of HSC quiescence after high-dose irradiation correlates with increased hematopoietic recovery and enhanced mouse survival^35,37,41.
Flow cytometry and cell cycle analysis: Monoclonal antibodies recognizing the following markers were used for flow cytometric analyses and cell sorting of murine cells (LSR II or FACSAria III, BD Biosciences): (from BD Pharmingen) c-kit (2B8), Sca-1 (D7), CD11b (M1/70), CD11c (HL3), CD19 (ID3), CD3ϵ (145-2C11), CD34 (RAM34), CD45 (30-F11), CD45.1 (A20), CD45.2 (104), CD48 (HM48-1), CD62L (MEL-14), CD135 (A2F10.1), Gr-1 (RB6-8C5), NK1.1 (PK136), TER-119 (TER-119); (from eBioscience) CD127 (A7R34), CD150 (mShad150); (from Invitrogen) B220 (RA3-6B2) and streptavidin (N/A). […]

On to `CC(=O)N[C@H](Cc1ccc2ccccc2c1)C(=O)N[C@H](Cc1ccc(Cl)cc1)C(=O)N[C@H](Cc1cccnc1)C(=O)N[C@@H](CO)C(=O)N[C@@H](Cc1ccc(NC(=O)[C@@H]2CC(=O)NC(=O)N2)cc1)C(=O)N[C@H](Cc1ccc(NC(N)=O)cc1)C(=O)N[C@@H](CC(C)C)C(=O)N[C@@H](CCCCNC(C)C)C(=O)N1CCC[C@H]1C(=O)N[C@H](C)C(N)=O` [LHRH-Ant, Degarelix] (Ac-[d2Nal][dPhe(4-Cl)][d3Pal]S[Phe(4-NH2)](Dihydroorotyl(S))[dPhe(4-NHCONH2)]L[Lys(iPr)]P[dA]-NH2), for which the “total BM cellularity” value in assay [1] (day 7 after L-TBI, vs vehicle) is recorded as “no difference”. Further, in assay [1] (day 14 after L-TBI), the “LSKs and their downstream progenitors” value is on record as “expansion”; the LT-HSCs number result is “significantly more LT-HSCs”. In addition, the BM cellularity entry in assay [1] (day 14 after radiation, vs vehicle) is reported as “started to separate significantly from the vehicle group by day 14”. Besides, in assay [2], the BFU-E colonies entry is “significant increase” and the CFU-GM colonies entry is reported as “significant increase”. Moreover, the level of testosterone result in assay [3] (after radiation) is listed as “did not significantly lower the level of testosterone”. In assay [3] (irradiated mice), the “level of FSH” value was “dramatically decreased” and the “level of LH” value was “dramatically decreased”. Also, in the assay with LT-HSCs, the “proliferative HSCs” value is “fewer proliferative HSCs” and the “proportion of Ki-67− quiescent LT-HSCs” value is on record as “significantly higher proportion”.
